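A five-concentration, 48-hour dose response in 96-well plates underlies each endpoint, interpolated linearly between surrounding concentrations. Abbreviation: GI50, concentration required for 50% inhibition of growth.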 Active and inactive are the calls of the source. Cut-off read from the data, not from the text of the source: active = GI50 up to about 1.1 µM and inactive = higher.

Some test systems named below: 786-0; SNB-19; MOLT-4; Hs-578T; IGROV-1; NCI-H460; CCRF-CEM; HCT-116; NCI-H522; HCC 2998; UACC-62; OVCAR-8; COLO 205; CAKI-1; OVCAR-3; HT-29; HCT-15; SF-539; BT-549; RPMI-8226.
Common to all, as to assay: growth of human tumour cells (NCI), 48 h

`COc1ccc2nc(-c3ccc(OC(=O)N(C)C)cc3)cn2c1`: the GI50 in the experiment on 786-0 was 91.6 µM (inactive); in the experiment on SNB-19 it was > 100 µM (inactive); in the experiment with MOLT-4 it was 82 µM (inactive); with Hs-578T, > 100 µM (inactive); with IGROV-1, > 100 µM (inactive); with NCI-H460, 36 µM (inactive). For the same compound, the GI50 is 67.5 µM (inactive) in the experiment on CCRF-CEM; > 100 µM (inactive) with HCT-116; 36 µM (inactive) in the experiment on NCI-H522; > 100 µM (inactive) in the experiment on HCC 2998; > 100 µM (inactive) in the experiment with UACC-62; > 100 µM (inactive) with OVCAR-8. For the same compound, the GI50 with COLO 205 was 41.4 µM (inactive); in the experiment with CAKI-1 it was > 100 µM (inactive); in the experiment on OVCAR-3, > 100 µM (inactive); with HT-29, 27.8 µM (inactive).
For the compound `O=C1Nc2ccccc2/C1=N/NC(=S)Nc1cccc(Cl)c1`, the GI50 in the experiment on 786-0 was 5.12 µM (inactive); in the experiment with SNB-19, 16.6 µM (inactive); in the experiment with MOLT-4, 0.614 µM (active); in the experiment with Hs-578T it was 33.4 µM (inactive); in the experiment on IGROV-1, 17.2 µM (inactive); with NCI-H460, 5.52 µM (inactive). Further, the GI50 in the experiment with CCRF-CEM is 2.75 µM (inactive); in the experiment with HCT-116 it was 3.49 µM (inactive); in the experiment on NCI-H522, 21.9 µM (inactive); with HCC 2998, 66.4 µM (inactive); in the experiment with UACC-62, 8.41 µM (inactive); in the experiment with HCT-15, 7.64 µM. Besides, the GI50 in the experiment on OVCAR-8 is 5.04 µM (inactive); with SF-539 it was 7 µM (inactive); with COLO 205, 8.93 µM (inactive); with CAKI-1 it was 8.3 µM (inactive); in the experiment on OVCAR-3 it was 2.68 µM (inactive); in the experiment with HT-29, 10.1 µM (inactive).
For `C=C1c2c(n(S(=O)(=O)c3ccccc3)c3ccccc23)[C@@]2(C(=O)OC)CC3C=CC2N1C3`, the GI50 in the experiment with 786-0, with SNB-19, in the experiment with MOLT-4, in the experiment with IGROV-1, in the experiment on NCI-H460 and with CCRF-CEM was > 100 µM (inactive) in each case. Besides, the GI50 in the experiment on HCT-116 is > 100 µM (inactive); in the experiment with NCI-H522, > 100 µM (inactive); in the experiment on HCC 2998, > 100 µM (inactive); with BT-549, > 100 µM (inactive); in the experiment with UACC-62, > 100 µM (inactive); with HCT-15, greater than 100 µM. Also, the GI50 in the experiment on OVCAR-8 was > 100 µM (inactive); in the experiment on SF-539, > 100 µM (inactive); with COLO 205, > 100 µM (inactive); with RPMI-8226, 41.3 µM (inactive); in the experiment on CAKI-1 it was > 100 µM (inactive); in the experiment on OVCAR-3, > 100 µM (inactive). In addition, the GI50 in the experiment on HT-29 is > 100 µM (inactive).
Take `CCOC(=O)N(CC)c1c(C(F)(F)F)cc(-c2ccccc2)[nH]c1=O`: the GI50 in the experiment on 786-0 is 64.3 µM (inactive); with SNB-19, > 100 µM (inactive); in the experiment with MOLT-4 it was 25.8 µM (inactive); with IGROV-1, 47.2 µM (inactive); with NCI-H460, 45.1 µM (inactive); with CCRF-CEM, 16.4 µM (inactive). The GI50 is 48.5 µM (inactive) in the experiment on HCT-116; 54.2 µM (inactive) in the experiment on HCC 2998; 75 µM (inactive) in the experiment with BT-549; 66.2 µM (inactive) with UACC-62; 40.6 µM in the experiment on HCT-15; 49.4 µM (inactive) in the experiment on OVCAR-8. Also, the GI50 is 32.4 µM (inactive) in the experiment with COLO 205; 14.5 µM (inactive) in the experiment with RPMI-8226; > 100 µM (inactive) with CAKI-1; 37.1 µM (inactive) with OVCAR-3; 61.1 µM (inactive) in the experiment on HT-29.

These data come from ChEMBL document CHEMBL1201862, “PubChem BioAssay data set” (2004).
